Source: patent US7739055B2, “Methods and systems for generating and evaluating peptides” (priority 2005, dated 2010)
Where a SMILES comes first, the peptide text is derived from it.

Test system: B. cereus

Structure (SMILES): CC[C@H](C)[C@H](NC(=O)[C@H](CC(C)C)NC(=O)[C@H](C)NC(=O)[C@@H]1CCCN1C(=O)[C@H](C)NC(=O)[C@@H](NC(=O)[C@H](CCCCN)NC(=O)[C@@H](N)CCCNC(=N)N)C(C)C)C(=O)N[C@@H](CCCCN)C(=O)N[C@@H](CO)C(=O)N[C@@H](Cc1ccccc1)C(=O)N[C@H](C(=O)N[C@@H](Cc1ccccc1)C(=O)N[C@@H](CC(C)C)C(=O)N[C@@H](Cc1ccccc1)C(=O)N[C@@H](CCCCN)C(=O)N[C@@H](Cc1ccccc1)C(=O)N[C@@H](CCCCN)C(=O)N[C@@H](CCCCN)C(=O)NCC(=O)O)C(C)C [Shuffled 51] (H-RKVAPALIKSFVFLFKFKKG-OH; N-terminus and C-terminus assumed)
- MIC B. cereus: + (key: +: MIC greater than 256 ug/mL; ++: MIC greater than 128 ug/mL, not sufficiently soluble to test as 256 ug/mL)
